Laboratory results as given in US10024845B2, “Methods for determining modulators of insect transient receptor potential V (TRPV) channel” (BASF SE, priority 2013, dated 2018).
“Also recorded” adds a separate entry of the source. Like-named read-outs stand apart in the source and are kept apart here.

Legend:
parental CHO-K1 cells = format: cell-based, hamster
[1] = system: insect TRPV channel (Drosophila Nanchung and Inactive co-expressed); format: cell-based; conditions: for Response of cells (fluorescence units), Insect TRPV cells: single high dose 20 μM; for Ca2+ mobilization in cells co-expressing Nan and Iav (insect TRPV channel), in words: FLUO4 probe; for Dependence of the cell response on Ca2+ in the extracellular media: insect TRPV-expressing cells; for Inhibition of stimulation of the insect TRPV channel: cell-impermeable ion channel blocker
mouse TRPV4 (mTRPV4) = mouse TRPV4 (mTRPV4) (Mus musculus, UniProt Q9EPK8); assay: Ca2+ mobilization (FLUO4, FLIPR) in CHO-K1 cells expressing mTRPV4; format: cell-based; conditions: for Ca2+ mobilization in cells expressing mTRPV4, in words: FLUO4 probe
[2] = single high dose 20 μM, parental CHO-K1 cells
[3] = CHO-K1 cells expressing insect TRPV
[4] = single high dose 20 μM, CHO-K1 cells expressing mTRPV4
[5] = listed as metabolite B of Pyrifluquinazon

Chain of mouse TRPV4 (mTRPV4) (Q9EPK8 whole entry): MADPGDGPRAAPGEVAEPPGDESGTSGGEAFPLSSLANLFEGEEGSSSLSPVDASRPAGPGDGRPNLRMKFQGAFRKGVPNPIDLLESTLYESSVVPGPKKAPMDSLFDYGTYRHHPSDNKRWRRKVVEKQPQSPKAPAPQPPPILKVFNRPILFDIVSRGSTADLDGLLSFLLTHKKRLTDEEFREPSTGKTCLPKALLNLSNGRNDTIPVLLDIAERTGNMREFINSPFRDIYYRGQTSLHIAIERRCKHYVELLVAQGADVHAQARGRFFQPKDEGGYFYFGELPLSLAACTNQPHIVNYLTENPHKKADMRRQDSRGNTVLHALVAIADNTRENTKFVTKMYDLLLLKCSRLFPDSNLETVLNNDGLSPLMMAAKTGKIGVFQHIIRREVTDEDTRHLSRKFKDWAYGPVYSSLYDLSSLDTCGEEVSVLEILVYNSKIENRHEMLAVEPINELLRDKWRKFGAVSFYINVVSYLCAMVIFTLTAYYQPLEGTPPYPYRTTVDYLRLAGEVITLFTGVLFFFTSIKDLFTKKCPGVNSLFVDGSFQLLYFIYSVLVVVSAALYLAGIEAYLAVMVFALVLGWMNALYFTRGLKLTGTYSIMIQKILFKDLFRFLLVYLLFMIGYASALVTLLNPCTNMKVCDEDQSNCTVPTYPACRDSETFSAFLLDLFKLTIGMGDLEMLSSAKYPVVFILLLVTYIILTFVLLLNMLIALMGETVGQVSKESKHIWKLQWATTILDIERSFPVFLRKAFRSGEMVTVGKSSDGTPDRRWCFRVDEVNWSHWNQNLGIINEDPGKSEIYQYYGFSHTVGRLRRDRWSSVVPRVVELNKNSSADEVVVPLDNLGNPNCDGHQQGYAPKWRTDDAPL

Molecule	Response of cells (fluorescence units), Parental CHO cells (parental CHO-K1 cells; [2]) [fluorescence units]	Response of cells (fluorescence units), Insect TRPV cells [1, 3] [fluorescence units]	Response of cells (fluorescence units), mTRPV4 cells (mouse TRPV4 (mTRPV4); [4]) [fluorescence units]	further results
N#C/N=C1\SCCN1Cc1ccc(Cl)nc1 [Thiacloprid]	29	36	16	–
ClC1=C(Cl)[C@]2(Cl)[C@@H]3[C@@H]4C[C@@H]([C@H]5O[C@@H]45)[C@@H]3[C@@]1(Cl)C2(Cl)Cl [Dieldrin]	73	78	52	–
CC(=O)N1C(=O)N(NCc2cccnc2)Cc2cc(C(F)(C(F)(F)F)C(F)(F)F)ccc21 [pyrifluquinazon]	–	–	–	Ca2+ mobilization in cells co-expressing Nan and Iav (insect TRPV channel), in words [1]: triggered Ca^2+ mobilization; Dependence of the cell response on Ca2+ in the extracellular media [1]: absolutely dependent on the presence of Ca^2+ in the extracellular media
CN/C(=N/CC1CCOC1)N[N+](=O)[O-] (centres unmarked) [Dinotefuran]	–	48	23	Response of cells (fluorescence units), Parental CHO cells (parental CHO-K1 cells): 23 fluorescence units
c1ccc2c(CC3=NCCN3)cccc2c1 [Naphazoline]	50	31	11	–
CC1=NNC(=O)N(/N=C/c2cccnc2)C1 [pymetrozine]	–	–	–	Ca2+ mobilization in cells co-expressing Nan and Iav (insect TRPV channel), in words [1]: triggered Ca^2+ mobilization; also recorded: activation of insect TRPV channel; Ca2+ mobilization in cells co-expressing Nan and Iav (insect TRPV channel), in words ([1]; listed as Pymetrozine): triggered Ca^2+ mobilization; Ca2+ mobilization in cells expressing mTRPV4, in words (mouse TRPV4 (mTRPV4); listed as Pymetrozine): had no effect
O=[N+]([O-])NC1=NCCN1Cc1ccc(Cl)nc1 [Imidacloprid]	69	42	16	–
N.N.N.N.N.N.N.N.N.N.N.N.N.N.[Cl-].[Cl-].[Cl-].[Cl-].[Cl-].[Cl-].[O-2].[O-2].[Ru+3].[Ru+3].[Ru+4] [Ruthenium red]	–	–	–	Inhibition of stimulation of the insect TRPV channel [1]: inhibited; Inhibition of stimulation of the insect TRPV channel ([1]; listed as ruthenium red): inhibition of the response
NCC(O)c1ccc(O)cc1 (centres unmarked) [Octopamine]	45	66	20	–
Cc1ccc(/N=C/N(C)/C=N/c2ccc(C)cc2C)c(C)c1 [Amitraz]	50	58	25	–
O=C1Nc2ccc(C(F)(C(F)(F)F)C(F)(F)F)cc2CN1NCc1cccnc1 [Pyrifluquinazon metabolite B]	40	538	346	Potency relative to the parental compound pyrifluquinazon [1]: about 100 fold; Ca2+ mobilization in cells co-expressing Nan and Iav (insect TRPV channel), in words [1]: activation of insect TRPV channel; Ca2+ mobilization in cells co-expressing Nan and Iav (insect TRPV channel), in words [1, 5]: triggered Ca^2+ mobilization; Dependence of the cell response on Ca2+ in the extracellular media [1]: requires presence of Ca^2+ in the extracellular media; Potency against mouse TRPV4 relative to Drosophila TRPV channel (mouse TRPV4 (mTRPV4)): ~100 fold; Ca2+ mobilization in cells expressing mTRPV4, in words (mouse TRPV4 (mTRPV4)): weak activation; Ca2+ mobilization in cells expressing mTRPV4, in words (mouse TRPV4 (mTRPV4); [5]): did trigger Ca^2+ mobilization
CC(C)C[C@H](NC(=O)c1cc2ccccc2s1)C(=O)N1CCN(C(=O)[C@H](CO)NS(=O)(=O)c2ccc(Cl)cc2Cl)CC1 [GSK1016790A, N-((1 S)-1-{[4-((2 S)-2-{[(2,4-dichlorophenyl)sulfonyl]amino}-3-hydroxypropanoyl)-1-piperazinyl]carbonyl}-3-methylbutyl)-1-benzothiophene-2-carboxamide]	71	53	2017	Ca2+ mobilization in cells expressing mTRPV4, in words (mouse TRPV4 (mTRPV4)): induced strong Ca^2+ mobilization response; also recorded: strong activation
Clc1ccc(C2CC3CCC2N3)cn1 (centres unmarked) [Epibatidine]	49	–	63	Response of cells (fluorescence units), Insect TRPV cells ([1]; […]): 70 fluorescence units
CC[S+]([O-])c1c(C#N)nn(-c2c(Cl)cc(C(F)(F)F)cc2Cl)c1N (centres unmarked) [Ethiprole]	357	154	113	–
CN1CCN2c3ccccc3Cc3ccccc3C2C1 (centres unmarked) [Miansenn]	110	–	30	Response of cells (fluorescence units), Insect TRPV cells ([1]; […]): 86 fluorescence units
Clc1cccc(Cl)c1N=C1NCCN1 [Clonidine]	–	135	–	Response of cells (fluorescence units), Parental CHO cells (parental CHO-K1 cells): 136 fluorescence units; Response of cells (fluorescence units), mTRPV4 cells (mouse TRPV4 (mTRPV4)): 62 fluorescence units
NCCCC(=O)O [GABA]	100	68	43	–
Cl[C@H]1[C@H](Cl)[C@@H](Cl)[C@@H](Cl)[C@H](Cl)[C@H]1Cl [Lindane]	19	35	12	–
CC(=O)OCC[N+](C)(C)C [Acetylcholine]	797	250	–	–
CN1CCCC1c1cccnc1 (centres unmarked) [Nicotine]	–	81	–	Response of cells (fluorescence units), Parental CHO cells (parental CHO-K1 cells): 65 fluorescence units; Response of cells (fluorescence units), mTRPV4 cells (mouse TRPV4 (mTRPV4)): 8 fluorescence units
CNC(=O)c1cc(Cl)cc(C)c1NC(=O)c1cc(Br)nn1-c1ncccc1Cl [Rynaxapyr]	93	43	74	–
N#Cc1nn(-c2c(Cl)cc(C(F)(F)F)cc2Cl)c(N)c1[S+]([O-])C(F)(F)F (centres unmarked) [Fipronil]	240	133	60	–
Ryanodine	75	–	19	Response of cells (fluorescence units), Insect TRPV cells ([1]; […]): 53 fluorescence units
Abamectin	52	49	30	–
